We go through three compounds from patent US10792483B2, “Tumor vaccination” (XAX KFT., priority 2012, dated 2020).

The subject of data set [1] is non small cells lung cancer. As to the kind of experiment: Case report, patient treated with radiotherapy, oncothermia and GM-CSF (Example 13). The format is in vivo, human. The conditions noted are these: for Response of far-distant metastases (abscopal effect, PET scan): GM-CSF (Leukine) subcutaneously with oncothermia (and radiotherapy) of the primary tumor only; for Response of the primary (treated) tumor: GM-CSF (Leukine) with oncothermia (and radiotherapy). The source says: A patient was diagnosed with unclassifiable non small cells lung cancer. The classification of the tumor at first diagnosis was cT2N2M0, stage IIIB. Despite of the advanced case the patient refused any treatment. Five months later, they visited outpatient department of complementary and alternative medicine with complaints of hemoptysis and dyspnea on exertion gradually worsened 4 weeks before. They were referred to medical oncology department and admitted for re-evaluation.
The patient had no co-morbidities and no medical history. However, they still refused chemotherapy and together with their family members requested other possible treatment options.
In these circumstances we made radiotherapy in combination with oncothermia and GM-CSF expecting to induce abscopal effect. Local field radiation therapy to lung mass was delivered at a dose of […] in 28 daily fractions for 5-6 treatments in a week. It was followed by oncothermia after radiation 3 times a week. After 2 weeks of oncothermia treatment, GM-CSF (250 microgram, Leukine®, USA) was administered subcutaneously once a day for 10 days. GM-CSF in dose 125 μg/m^2 was given subcutaneously for 14 days after one week of radiotherapy. The result supported that using GM-CSF was feasible and its effect enhanced the immune therapy.

The test system of data set [2] is Melanoma. Conditions: phase III, 185 patients; cited from earlier work.
Data set [3] deals with melanoma with lung metastases. Briefly: Case report, dog treated with oncothermia and low dose Carboplatine (Example 11). The format is in vivo, Cocker spaniel. Conditions: low dose Carboplatine 2 times (100 mg/m^2) + oncothermia 10 times in 2 weeks on the chest. The protocol: Case No.:11461, Cocker spaniel, 8 years, castrated male,
Diagnosis: melanoma with lung metastases. The primary tumor was situated on the right hind leg and was removed surgically. 5 months later metastases in the lung occurred, at that time we started the treatment.
Oncothermia (10 times in a 2 weeks period)
Low dose Carboplatine 2 times, (100 mg/m^2)
The site of the OTM treatment was on the chest, exactly at the line of the heart.

“Also recorded” adds a separate entry of the source.

For the compound “Leukine®: sargramostim; recombinant granulocyte macrophage colony-stimulating factor”, in data set [1], the “Response of far-distant metastases (abscopal effect, PET scan)” value is reported as “beneficial effect also on the far-distances metastases, which disappear; also recorded: the metastases disappeared” and the “Response of the primary (treated) tumor” value is “started to shrink”. For the same compound, in data set [1] (listed as GM-CSF), the “Response of far-distant metastases (abscopal effect, PET scan)” value is “nearly complete remission in multiple metastatic lymph nodes; also recorded: successful abscopal effect” and the “Response of the primary (treated) tumor” value is on record as “shrinking”. The Adverse effects result in data set [1] (radiotherapy + oncothermia + GM-CSF, end of treatment period) is “no severe adverse effects except grade 1 fatigue”.
On to “gp100:209-217(210M): listed under vaccines with peptides (IMDQVPFSV; UniProt P40967 209-217, looked up, variant T210M)”, for which the “RR and PES” value in data set [2] was “Significant improve-”.
For `N.N.O=C([O-])C1(C(=O)[O-])CCC1.[Pt+2]` [Carboplatine], the “Tumor regression (CT image series)” value in data set [3] was “Significant tumor regression was observed not only at the site of the treatment, but outside of the directly OTM treated area”.
